Reference: publication PMC8466373, “Plant-Derived and Dietary Hydroxybenzoic Acids—A Comprehensive Study of Structural, Anti-/Pro-Oxidant, Lipophilic, Antimicrobial, and Cytotoxic Activity in MDA-MB-231 and MCF-7 Cell Lines” (Nutrients, 2021)
In brackets after ≈: the same amount, converted by molar mass. Several values for one entry are separate records, joined by “and”; a condition that tells them apart may be missing. Equal values may be shown once. Read-outs that look alike come from different tables or passages of the source. Marks after values point to notes of the source that are not given here.

Tests used:
[1] = DPPH assay; format: biochemical; settings: methanolic solutions, 60 min of reaction time
Protocol: DPPH assay was measured according to the method described by Rice-Evans. Appropriate volumes of methanolic solutions of the tested hydroxybenzoic acids (C = 30 μM) were mixed with methanol in test tubes to prepare a series of solutions of various concentrations (final volume 1 mL). Then, 2 mL of methanolic solution of DPPH^• (C = 60 μM) was added to each tube; the control contained methanol instead of the sample. The tubes with reaction mixtures were capped, vortexed, and left to stand for 60 min at 23 °C in the dark. The absorbance of the solutions was measured by the use of a Cary 5000 UV–Vis spectrophotometer (Santa Clara, CA, USA) at λ = 516 nm against pure methanol. […] The concentration of the tested hydroxybenzoic acids was plotted against the %I, and the IC50 values (antioxidant concentration that inhibited 50% of DPPH^• radicals) were calculated from the obtained scavenging curves.

[2] = ABTS assay; format: biochemical; settings: 50 μM, methanolic solutions, 7 min of reaction time
Protocol: ABTS assay was conducted according to the procedure of Re et al.. […] The absorbance of the solutions was measured with a UV–Vis spectrophotometer at 734 nm against methanol (the blank). The ability to scavenge ABTS^•+ cation radicals was expressed as the %I of ABTS^•+ and calculated according to the aforementioned equation.

[3] = FRAP assay (ferric-reducing antioxidant power); format: biochemical; parameters: key: (-): Negative values were obtained for these acids; settings: concentration of 50 μM, methanolic solutions
Protocol: FRAP assay was carried out as described in [42]. […] After 8 min of incubation at 23 °C, the absorbance at 595 nm was measured against the blank (containing 0.4 mL of methanol instead of the sample). Ferric-reducing antioxidant activity was expressed as Fe(II) ion equivalents (μM) using the calibration curve obtained for FeSO4 (the standard curve equation: y = 3.4303x − 0.1058; R^2 = 0.9984).

[4] = tested on: Bacillus subtilis (PCM 2850); assay: MIC by serial dilution in agar medium; format: cell-based
Protocol: (§1) The following bacterial strains were used in this study: Escherichia coli (PCM 2857), Pseudomonas aeruginosa (PCM 2720), Bacillus subtilis (PCM 2850), Staphylococcus aureus (PCM 2267), Salmonella enteritidis (NCTC 4776), and Candida albicans (PCM 2566-FY). The microbial strains were bought from the Polish Collection of Microorganisms (Wroclaw, Poland) or the American Type Culture Collection. Bacteria (0.1 mL of the reconstituted suspension) were seeded onto sterile Mueller–Hinton agar plates (Biomaxima), to which previously suitable amounts of the tested compounds were added to give the desired concentration.
(§2) The MIC (minimal inhibitory concentration) was determined by serial dilution of the tested compound in an agar medium, to which the appropriate inoculum of microorganisms was then added and incubated. Escherichia coli, Pseudomonas aeruginosa, Staphylococcus aureus, Bacillus subtilis, Salmonella enteritidis, and Candida albicans were grown overnight and then resuspended in physiological saline to an optical density at 600 nm (OD = 600) of 0.60, corresponding to 5.0 × 10^8 CFU/mL. Bacteria (0.1 mL of the reconstituted suspension) were seeded onto sterile Mueller–Hinton agar plates, to which previously suitable amounts of the tested compounds were added to reach the desired concentration. Tested chemicals were dissolved in DMSO solution. Negative controls were agar plates, to which DMSO was added, while positive controls were plates with gentamycin (in the case of bacteria) or flucanozole (in the case of fungi). The plates were incubated at 37 °C for 24 h. The lowest concentration without visible bacterial growth was determined as the MIC.

[5] = tested on: Candida albicans (PCM 2566-FY); assay: MIC by serial dilution in agar medium; format: cell-based
Protocol: as §1, §2

[6] = tested on: Escherichia coli (PCM 2857); assay: MIC by serial dilution in agar medium; format: cell-based
Protocol: as §1, §2

[7] = tested on: Pseudomonas aeruginosa (PCM 2720); assay: MIC by serial dilution in agar medium; format: cell-based
Protocol: as §1, §2

[8] = tested on: Staphylococcus aureus (PCM 2267); assay: MIC by serial dilution in agar medium; format: cell-based
Protocol: as §1, §2

[9] = Cytotoxicity, neutral red (NR) assay; format: cell-based, human; settings: human, 48 h treatment, neutral red assay
Protocol: Briefly, MCF-7 cells were cultured in EMEM (Biological Industries, Israel) medium supplemented with 10% fetal calf serum (Gibco). MDA-MB-231 cells were cultured in Leibovitz‘s L15 (Biological Industries, Beit HaEmek, Israel) medium supplemented with 10% fetal calf serum (Gibco). The MCF-7 cells were incubated in a 5% CO2 atmosphere at 37 °C, whereas the MDA-231 cells were incubated in a 100% air atmosphere at 37 °C.
Cytotoxicity evaluation was conducted to assess the impact of hydroxybenzoic acids on the proliferation of MCF-7 and MDA-MB-231 cells, which was measured via neutral red (NR) assay. In brief, cells were seeded in 96-well microplates (TPP, Switzerland) at a density of 2 × 10^4 cells/well in 100 μL of culture medium. At least three independent experiments in six replicate wells were conducted per concentration. Twenty-four hours after cell seeding, cells were treated with increasing concentrations of hydroxybenzoic acids (0.02–5 mM) for forty-eight hours. After treatment, cells were incubated for 3 h at 37 °C with 100 µL of neutral red solution (stock solution of NR) (Sigma-Aldrich), and then 5 mg/mL of PBS was diluted 1:100 in cell culture medium, incubated for 12 h at 37 °C, and centrifuged to remove any undissolved NR powder. […] After 15 min of gentle shaking, optical density was read at 540 nm with an Infinite M200 plate reader spectrophotometer (Tecan, Austria).

[10] = Lipophilicity via RP-HPLC; format: physicochemical
Protocol: The analyses were carried out on the following chromatographic columns: RP-18e Purospher STAR (C18), 150 mm × 4.0 mm, 5 µm, (Merck, Darmstadt, Germany); RP-8e Purospher STAR (C8), 150 mm × 4.6 mm, 5 µm, (Merck, Darmstadt, Germany); Zorbax Eclipse XDB-CN (CN), 150 mm × 4.6 mm, 5 µm, (Agilent Technologies, Santa Clara, CA, USA); Nucleosil Phenyl (PHE), 250 mm × 4.6 mm, 7 µm, (Supelco, Bellefonte, PA, USA); and Regis Rexchrom IAM.PC.DD.2 (IAM), 100 mm × 4.6 mm, 10 µm, (Regis Technologies Inc., Morton Grave, IL, USA). The experimental conditions and the calculations were as described in [46].

[11] = ref 102; cited from earlier work
[12] = MCF-7 cells (breast adenocarcinoma), read-out: Cytotoxicity (mM) in Cell Line MCF-7, IC50
[13] = MDA-MB-231 cells (breast adenocarcinoma), read-out: Cytotoxicity (mM) in Cell Line MDA-MB-231, IC50
[14] = read-out: Cytotoxicity (mM) in Cell Line MCF-7, IC50
[15] = read-out: Cytotoxicity (mM) in Cell Line MDA-MB-231, IC50

Structure (SMILES)	MIC ([4]; read-out: MIC) [µg/mL]	MIC ([5]; read-out: MIC) [µg/mL]	MIC ([6]; read-out: MIC) [µg/mL]	MIC ([7]; read-out: MIC) [µg/mL]	MIC ([8]; read-out: MIC) [µg/mL]	IC50 [1] [µM]	Inhibition of ABTS•+ radicals (%I) [2] [%]	FRAP [3]	IC50 at 48 h [9, 12] [mM]	log kw ([10]; C8 column)	ϕ0 ([10]; C8 column)	log kw ([10]; C18 column)	ϕ0 ([10]; C18 column)	log kw ([10]; CN column)	ϕ0 ([10]; CN column)	log kw ([10]; IAM column)	ϕ0 ([10]; IAM column)	log kw ([10]; PHE column)	ϕ0 ([10]; PHE column)	LogPexp. [11]	also measured
O=C(O)c1cccc(O)c1O [2,3-DHB, 2,3-Dihydroxybenzoic acid]	5000 (≈ 32.4 mM)	5000 (≈ 32.4 mM)	5000 (≈ 32.4 mM)	5000 (≈ 32.4 mM)	5000 (≈ 32.4 mM)	5.86 ± 0.64	86.40	173.79 µM Fe^2+ and 173.79 ± 39.06 µM Fe^2+	> 5	1.70	0.87	2.47	0.60	1.59	1.16	2.17	1.08	1.25	0.93	1.20 [102]	IC50 at 48 h [9, 13]: 4.1 mM
O=C(O)c1ccc(O)c(O)c1 [3,4-DHB, 3,4-dihydroxybenzoic acid]						5.24 ± 0.95	74.51	44.22 µM Fe^2+ and 44.22 ± 9.38 µM Fe^2+		1.00	0.83	2.32	0.45	1.58	1.08	0.44	1.13	1.07	0.50	0.86 [102]	MIC [4]: 2000 µg/mL (≈ 13 mM); MIC [5]: 2000 µg/mL (≈ 13 mM); MIC [6]: 2000 µg/mL (≈ 13 mM); MIC [7]: 2000 µg/mL (≈ 13 mM); MIC [8]: 2000 µg/mL (≈ 13 mM); IC50 at 48 h [9, 14]: > 5 mM; IC50 at 48 h [9, 15]: > 5 mM
O=C(O)c1cc(O)c(O)c(O)c1 [3,4,5-THB, 3,4,5-trihydroxybenzoic acid]	3000 (≈ 17.6 mM)	3000 (≈ 17.6 mM)	3000 (≈ 17.6 mM)	4000 (≈ 23.5 mM)	6000 (≈ 35.3 mM)	2.42 ± 0.08	79.50	158.10 µM Fe^2+ and 158.10 ± 14.81 µM Fe^2+		0.50	0.91	1.91	0.37	1.24	1.06	0.15	1.44	0.83	0.33	0.70 [102]	IC50 at 48 h [9, 14]: 0.44 mM; IC50 at 48 h [9, 15]: 0.36 mM

Continued, in another order:

MIC ([4]; read-out: MIC) [µg/mL]	MIC ([5]; read-out: MIC) [µg/mL]	MIC ([6]; read-out: MIC) [µg/mL]	MIC ([7]; read-out: MIC) [µg/mL]	MIC ([8]; read-out: MIC) [µg/mL]	Structure (SMILES)	IC50 [1] [µM]	Inhibition of ABTS•+ radicals (%I) [2] [%]	FRAP [3]	IC50 at 48 h [9, 12] [mM]	log kw ([10]; C8 column)	ϕ0 ([10]; C8 column)	log kw ([10]; C18 column)	ϕ0 ([10]; C18 column)	log kw ([10]; CN column)	ϕ0 ([10]; CN column)	log kw ([10]; IAM column)	ϕ0 ([10]; IAM column)	log kw ([10]; PHE column)	ϕ0 ([10]; PHE column)	LogPexp. [11]	also measured
2000 (≈ 13 mM)	2000 (≈ 13 mM)	2000 (≈ 13 mM)	3000 (≈ 19.5 mM)	2000 (≈ 13 mM)	O=C(O)c1cc(O)cc(O)c1 [3,5-DHB, 3,5-dihydroxybenzoic acid]	> 1000	60.39	(-) *	> 5	0.90	0.83	2.56	0.45	1.78	1.07	0.51	1.16	1.03	0.55	0.86 [102]	IC50 at 48 h [9, 13]: > 5 mM
3000 (≈ 19.5 mM)	5000 (≈ 32.4 mM)	3000 (≈ 19.5 mM)	5000 (≈ 32.4 mM)	5000 (≈ 32.4 mM)	O=C(O)c1cc(O)ccc1O [2,5-DHB, 2,5-dihydroxybenzoic acid]	4.99 ± 0.79	80.11	236.00 µM Fe^2+ and 236.00 ± 6.31 µM Fe^2+	> 5												IC50 at 48 h [9, 13]: 4.39 mM
3000 (≈ 19.5 mM)	3000 (≈ 19.5 mM)	3000 (≈ 19.5 mM)	4000 (≈ 26 mM)	5000 (≈ 32.4 mM)	O=C(O)c1c(O)cccc1O [2,6-DHB, 2,6-dihydroxybenzoic acid]	209 ± 0.98	8.12	(-) *	> 5	1.17	1.05	2.99	0.68	1.49	1.08	1.31	1.14	0.87	1.05	2.20 [102]	IC50 at 48 h [9, 13]: 3.97 mM
